From the NIST ThermoML archive (doi:10.1016/j.jct.2005.08.005)

Assay: refractive index (other wavelength) (dimensionless); xn = mol fraction of the nth substance listed
Details: 101.3 kPa, Liquid, Wavelength=632.8 nm, Method described in references 3 and 4 of the article

N#Cc1ccccc1 [benzonitrile] + CCCCCCCCCCCCCCCC
Details	refractive index
294.62 K, x1 = 1	1.5246
295.4 K, x1 = 0.0997	1.4353
296.2 K, x1 = 0.1982	1.4385
296.22 K, x1 = 0.3022	1.4432
296.49 K, x1 = 0.8855	1.499
296.97 K, x1 = 1	1.5235
297.19 K, x1 = 0.0997	1.4346
297.59 K, x1 = 0.1982	1.438
298.03 K, x1 = 0.3972	1.4472
298.19 K, x1 = 0.3022	1.4423
298.57 K, x1 = 0.8855	1.498
299.03 K, x1 = 0.0997	1.4338
299.08 K, x1 = 1	1.5224
299.56 K, x1 = 0.3972	1.4466
299.75 K, x1 = 0.3022	1.4416
299.78 K, x1 = 0.1982	1.437
300.77 K, x1 = 0.0997	1.433
301.05 K, x1 = 0.3022	1.441
301.05 K, x1 = 0.8855	1.4969
301.17 K, x1 = 0.1982	1.4365
301.26 K, x1 = 0.3972	1.4459
301.39 K, x1 = 1	1.5213
301.64 K, x1 = 0.1982	1.4362
302.7 K, x1 = 0.0997	1.4323
302.75 K, x1 = 0.3972	1.4452
302.86 K, x1 = 0.3022	1.4403
302.96 K, x1 = 0.4976	1.4519
303.42 K, x1 = 1	1.5203
303.45 K, x1 = 0.7947	1.481
303.59 K, x1 = 0.8855	1.4957
303.7 K, x1 = 0.4976	1.4515
303.82 K, x1 = 0.1982	1.4353
304.08 K, x1 = 0.0997	1.4317
304.21 K, x1 = 0.3972	1.4446
304.25 K, x1 = 0.3022	1.4397
304.25 K, x1 = 0.4976	1.4512
304.4 K, x1 = 0.7947	1.4806
304.69 K, x1 = 0.595	1.4585
304.73 K, x1 = 0.4976	1.451
305.22 K, x1 = 0.7947	1.4802
305.41 K, x1 = 0.3972	1.444
305.44 K, x1 = 0.6854	1.4668
305.47 K, x1 = 0.595	1.4582
305.66 K, x1 = 0.1982	1.4346
305.66 K, x1 = 0.4976	1.4507
305.86 K, x1 = 0.0997	1.4309
305.86 K, x1 = 0.3022	1.439
305.89 K, x1 = 0.7947	1.4799
305.92 K, x1 = 1	1.5191
305.98 K, x1 = 0.8855	1.4946
306.25 K, x1 = 0.6854	1.4665
306.37 K, x1 = 0.595	1.4578
306.66 K, x1 = 0.6854	1.4663
306.68 K, x1 = 0.7947	1.4795
307.36 K, x1 = 0.595	1.4574
307.66 K, x1 = 0.6854	1.4658
307.86 K, x1 = 0.8855	1.4937
308.18 K, x1 = 0.595	1.457
308.42 K, x1 = 0.6854	1.4655
